For 26 molecules, IC50 results are on record in ChEMBL document CHEMBL5725332, “Quinazoline derivative” (2017).

Broadly, the IC50 is the concentration that gives 50% inhibition.

Some results are limits rather than exact numbers.

This assay is described as follows: Luciferase Assay: Using ONE-Glo Luciferase Assay System (Promega Corporation, No. E6110), the luciferase activity of the cells in the wells was measured by a microplate reader (Synergy H1, BioTek Instruments, Inc.) An IC50 value was calculated from the luminescence intensity of each compound concentration, supposing that the luminescence intensity of a group with no addition of the compound and with Wnt-3a stimulation was 100%, and that the luminescence intensity of a group with no addition of the compound and with no Wnt-3a stimulation was 0%. The following applies: Homo sapiens.
On to `O[C@H]1CC[C@@H](Oc2cccc3cnc(Nc4ccc5nc[nH]c5c4)nc23)CC1`, for which the half-inhibitory concentration (IC50) was below 300 nM.

In the case of `Cc1nc2c(Br)cc(Nc3ncc4cccc(O[C@H]5CC[C@@H](O)CC5)c4n3)cc2[nH]1`, the IC50 result was “in the range around 2000 nM”.

As to `OCc1nc2cc(Nc3ncc4cccc(O[C@H]5CC[C@@H](O)CC5)c4n3)ccc2[nH]1`, the IC50 entry was “in the range around 650 nM”.

Turning to `Cc1ccc2cc(Nc3ncc4cccc(O[C@H]5CC[C@@H](O)CC5)c4n3)ccc2n1`, the IC50 result is “in the range around 650 nM”.

On to `Cc1nc2ccc(Nc3ncc4ccc(Br)c(O[C@H]5CC[C@@H](O)CC5)c4n3)cc2[nH]1`, for which the IC50 entry is “in the range around 650 nM”.

Take `COCc1nc2ccc(Nc3ncc4cccc(O[C@H]5CC[C@@H](O)CC5)c4n3)cc2[nH]1`: the IC50 entry is “in the range around 650 nM”.

As for `O[C@H]1CC[C@@H](Oc2c(F)ccc3cnc(Nc4ccc5ncccc5c4)nc23)CC1`, the IC50 is below 300 nM.

As to `O[C@H]1CC[C@@H](Oc2cccc3cnc(Nc4ccc5nc(C(F)(F)F)[nH]c5c4)nc23)CC1`, the IC50 result was “in the range around 2000 nM”.

Consider `O[C@H]1CC[C@@H](Oc2cccc3cnc(Nc4ccc5[nH]c(CN6CCCC6)nc5c4)nc23)CC1`, for which the IC50 is below 300 nM.

Consider `Cc1nc2c(C)cc(Nc3ncc4cccc(O[C@H]5CC[C@@H](O)CC5)c4n3)cc2[nH]1`, for which the 50% inhibitory concentration (IC50) entry is “in the range around 650 nM”.

Regarding `O[C@H]1CC[C@@H](Oc2cccc3cnc(Nc4ccc5scnc5c4)nc23)CC1`, the half-inhibitory concentration (IC50) was below 300 nM.

As for `O[C@H]1CC[C@@H](Oc2cc(F)cc3cnc(Nc4ccc5nc[nH]c5c4)nc23)CC1`, the IC50 entry was “in the range around 650 nM”.

`O[C@H]1CC[C@@H](Oc2cccc3cnc(Nc4ccc5cnccc5c4)nc23)CC1`: the IC50 entry was “in the range around 650 nM”.

As to `Cc1cc2nc[nH]c2cc1Nc1ncc2cccc(O[C@H]3CC[C@@H](O)CC3)c2n1`, the IC50 result was “in the range around 650 nM”.

With `OCc1n[nH]c2cc(Nc3ncc4ccc(F)c(O[C@H]5CC[C@@H](O)CC5)c4n3)ccc12`, the IC50 was below 300 nM.

For the molecule `O[C@H]1CC[C@@H](Oc2cccc3cnc(Nc4ccnc5ccccc45)nc23)CC1`, the 50% inhibitory concentration (IC50) is below 300 nM.

For the molecule `OCc1cc(Nc2ncc3cccc(O[C@H]4CC[C@@H](O)CC4)c3n2)cc2[nH]cnc12`, the IC50 is below 300 nM.

As to `O[C@H]1CC[C@@H](Oc2c(F)ccc3cnc(Nc4ccc5ncsc5c4)nc23)CC1`, the half-inhibitory concentration (IC50) is below 300 nM.

In the case of `O[C@H]1CC[C@@H](Oc2cccc3cnc(Nc4ccnc5cc(F)ccc45)nc23)CC1`, the half-inhibitory concentration (IC50) result is “in the range around 650 nM”.

Take `O[C@H]1CC[C@@H](Oc2cccc3cnc(Nc4ccc5ncccc5c4)nc23)CC1`: the half-maximal inhibitory concentration (IC50) result is “in the range around 650 nM”.

`Cc1ccc2cnc(Nc3ccc4nc[nH]c4c3)nc2c1O[C@H]1CC[C@@H](O)CC1`: the IC50 entry is “in the range around 650 nM”.

Regarding `O[C@H]1CC[C@@H](Oc2cccc3cnc(Nc4ccc5ccncc5c4)nc23)CC1`, the concentration for half-maximal inhibition (IC50) entry is “in the range around 2000 nM”.

Regarding `O[C@H]1CC[C@@H](Oc2c(Br)ccc3cnc(Nc4ccc5nc[nH]c5c4)nc23)CC1`, the 50% inhibitory concentration (IC50) was below 300 nM.

Consider `COc1ccc2c(Nc3ncc4cccc(O[C@H]5CC[C@@H](O)CC5)c4n3)ccnc2c1`, for which the IC50 result was “in the range around 650 nM”.

`O[C@H]1CC[C@@H](Oc2cccc3cnc(Nc4cccc5cnccc45)nc23)CC1`: the IC50 result is “in the range around 650 nM”.

`C[C@H](O)c1nc2ccc(Nc3ncc4cccc(O[C@H]5CC[C@@H](O)CC5)c4n3)cc2[nH]1`: the 50% inhibitory concentration (IC50) entry was “in the range around 650 nM”.
